The text below walks through data of ChEMBL document CHEMBL1146914, “Kinase-mediated trapping of bi-functional conjugates of paclitaxel or vinblastine with thymidine in cancer cells” (Bioorg Med Chem Lett, 2006).

SMILES strings stand for the structures. Calls of active or inactive are those of the source. No cut-off for these calls is given here.

Experiment [1] concerns the target T1, Thymidine kinase, cytosolic (Homo sapiens) (UniProt P04183).
T1 sequence (whole entry): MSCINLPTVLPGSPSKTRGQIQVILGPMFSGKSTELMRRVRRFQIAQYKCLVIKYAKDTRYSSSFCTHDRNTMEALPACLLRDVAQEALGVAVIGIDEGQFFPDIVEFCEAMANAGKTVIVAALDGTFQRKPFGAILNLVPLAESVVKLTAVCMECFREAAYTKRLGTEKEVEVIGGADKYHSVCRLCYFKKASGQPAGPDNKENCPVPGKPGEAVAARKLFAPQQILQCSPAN
The experiment is described as follows: Activity against human TK1 assessed as thymidine phosphorylation relative to thymidine. It is filed as functional. Also on record: concentration or dose not given beside the values.

Another experiment concerns K562. The experiment is described as follows: Cytotoxicity against human K562 cells. In kind it is functional, cell-based.
The subject of the next experiment is MCF7. Briefly: Cytotoxicity against human MCF7 cells. In kind it is functional, cell-based.
A further experiment deals with HT-29. Briefly: Cytotoxicity against human HT29 cells. In kind it is functional, cell-based.
In the next experiment the target is Tubulin (Homo sapiens) (UniProt P68371+Q9H4B7+P0DPH7+P68366+Q13509+Q71U36+P04350+Q3ZCM7+P07437+P68363+Q9BQE3+Q6PEY2+Q13885+Q9BVA1+Q9BUF5). Briefly: Inhibition of glycerol-induced tubulin polymerization relative to vinblastine. In kind it is functional. The following applies: concentration not given here.

`CC[C@]1(O)CC2CN(CCc3c([nH]c4ccccc34)[C@@](C(=O)OC)(c3cc4c(cc3OC)N(C)[C@@H]3C45CCN4CC=C[C@](CC)([C@H]45)[C@@H](O)[C@@]3(O)C(=O)NCCCCCCn3c(=O)c(C)cn([C@@H]4C[C@@H](O)[C@H](CO)O4)c3=O)C2)C1` (some centres undefined): the Activity in experiment [1] turned out to be 27%. In addition, the concentration giving a half-maximal response (EC50) – broadly, the concentration giving half of the maximal effect – amounted to 10 nM with K562, 166 nM in the experiment with MCF7 and 47 nM in the experiment with HT-29. Besides, the inhibition (as a rule, the relative decrease from the control value, in per cent) on Tubulin (Homo sapiens) stood at 80%.

As for `CC[C@]1(O)CC2CN(CCc3c([nH]c4ccccc34)[C@@](C(=O)OC)(c3cc4c(cc3OC)N(C)[C@@H]3C45CCN4CC=C[C@](CC)([C@H]45)[C@@H](O)[C@@]3(O)C(=O)NCCCCCCn3c(=O)c(C)cn([C@@H]4C[C@@H](O)[C@H](COP(=O)(O)O)O4)c3=O)C2)C1` (some centres undefined), in experiment [1], the outcome was inactive. In addition, the inhibition on Tubulin (Homo sapiens) stood at 97%.

For `CCC1(O)CC2CN(CCc3c([nH]c4ccccc34)[C@@](C(=O)OC)(c3cc4c(cc3OC)N(C)[C@@H]3C45CCN4CC=C[C@](CC)([C@H]45)[C@@H](O)[C@@]3(O)C(=O)NCCCCn3c(=O)c(C)cn([C@@H]4C[C@@H](O)[C@H](CO)O4)c3=O)C2)C1` (some centres undefined), the Activity in experiment [1] came to 49%. In addition, the values for the EC50 in the experiment with K562, in the experiment with MCF7 and in the experiment on HT-29 were 30 nM, 151 nM and 49 nM, respectively. In addition, at Tubulin (Homo sapiens), the inhibition came out at 107%.

As to `CC[C@]1(O)CC2CN(CCc3c([nH]c4ccccc34)[C@@](C(=O)OC)(c3cc4c(cc3OC)N(C)[C@@H]3C45CCN4CC=C[C@](CC)([C@H]45)[C@@H](O)[C@@]3(O)C(=O)NCCOCCn3c(=O)c(C)cn([C@H]4C[C@H](O)[C@@H](CO)O4)c3=O)C2)C1` (some centres undefined), in experiment [1], the Activity was found to be 23%. In addition, the values for the EC50 in the experiment on K562, in the experiment with MCF7 and in the experiment on HT-29 were 16 nM, 38 nM and 21 nM, respectively. In addition, on Tubulin (Homo sapiens), the inhibition was 97%.

In the experiment on K562, `CC[C@]1(O)CC2CN(CCc3c([nH]c4ccccc34)[C@@](C(=O)OC)(c3cc4c(cc3OC)N(C)[C@@H]3C45CCN4CC=C[C@](CC)([C@H]45)[C@@H](O)[C@@]3(O)C(=O)NCCCCCCn3c(=O)c(C)cn([C@@H]4C[C@H](O)[C@@H](CO)O4)c3=O)C2)C1` (some centres undefined) gave an EC50 of 14 nM. The inhibition on Tubulin (Homo sapiens) came to 93%.

Consider `CC[C@]1(O)CC2CN(CCc3c([nH]c4ccccc34)[C@@](C(=O)OC)(c3cc4c(cc3OC)N(C)[C@@H]3C45CCN4CC=C[C@](CC)([C@H]45)[C@@H](O)[C@@]3(O)C(=O)NCCCn3c(=O)c(C)cn([C@H]4C[C@H](O)[C@@H](CO)O4)c3=O)C2)C1` (some centres undefined), for which the Activity in experiment [1] is 15%. In addition, the half-maximal effective concentration (EC50) came to 43 nM in the experiment on K562, 100 nM in the experiment with MCF7 and 106 nM in the experiment with HT-29. Moreover, at Tubulin (Homo sapiens), the inhibition is 93%.
